Patent publication US6706740B2, “Fungicidal heterocyclic aromatic amides and their compositions, methods of use and preparation” (Dow AgroSciences LLC, priority 1999, dated 2004)

test system: Magnaporthe grisea (Pyricularia oryzae—PYRIOR); assay: microbe, parasite or virus in culture; format: cell-based; conditions: Pyricularia oryzae, read-out: PYRIOR in vitro Growth Inhibition

Structure (SMILES) | inhibition at 25 ppm [%]
CC(C)(C)CNC(=O)c1cccnc1O [Compound 514] | < 80
COc1ccnc(C(=O)Nc2ccc(Oc3cc(Cl)nc(C(F)(F)F)c3)cc2)c1O [Compound 467] | < 80
COc1ccnc(C(=O)Nc2ccc(Oc3ccc(C(F)(F)F)cn3)cc2)c1O [Compound 462] | > 80

test system: Rhizoctonia solani (RHIZSO); assay: microbe, parasite or virus in culture; format: cell-based; conditions: Rhizoctonia solani, read-out: RHIZSO in vitro Growth Inhibition

Structure (SMILES) | inhibition at 25 ppm [%]
CC(C)(C)CNC(=O)c1cccnc1O [Compound 514] | < 80
COc1ccnc(C(=O)Nc2ccc(Oc3cc(Cl)nc(C(F)(F)F)c3)cc2)c1O [Compound 467] | < 80
COc1ccnc(C(=O)Nc2ccc(Oc3ccc(C(F)(F)F)cn3)cc2)c1O [Compound 462] | < 80

test system: Mycosphaerella graminicola (Septoria tritici—SEPTTR); assay: In vitro fungal growth inhibition, Mycosphaerella graminicola (SEPTTR); format: cell-based; conditions: Zymoseptoria tritici; 25 ppm in the growth medium; read-out: SEPTTR in vitro Growth Inhibition

Structure (SMILES) | inhibition at 25 ppm [%]
CC(C)(C)CNC(=O)c1cccnc1O [Compound 514] | < 80
COc1ccnc(C(=O)Nc2ccc(Oc3cc(Cl)nc(C(F)(F)F)c3)cc2)c1O [Compound 467] | < 80
COc1ccnc(C(=O)Nc2ccc(Oc3ccc(C(F)(F)F)cn3)cc2)c1O [Compound 462] | > 80

test system: Stagonospora nodorum (Leptosphaeria nodorum—LEPTNO); assay: In vitro fungal growth inhibition, Stagonospora nodorum (LEPTNO); format: cell-based; conditions: Leptosphaeria; 25 ppm in the growth medium; read-out: LEPTNO in vitro Growth Inhibition

Structure (SMILES) | inhibition at 25 ppm [%]
CC(C)(C)CNC(=O)c1cccnc1O [Compound 514] | < 80
COc1ccnc(C(=O)Nc2ccc(Oc3cc(Cl)nc(C(F)(F)F)c3)cc2)c1O [Compound 467] | > 80
COc1ccnc(C(=O)Nc2ccc(Oc3ccc(C(F)(F)F)cn3)cc2)c1O [Compound 462] | < 80

test system: Ustilago maydis (USTIMA); assay: microbe, parasite or virus in culture; format: cell-based; conditions: Mycosarcoma maydis, read-out: USTIMA in vitro Growth Inhibition

Structure (SMILES) | inhibition at 25 ppm [%]
CC(C)(C)CNC(=O)c1cccnc1O [Compound 514] | < 80
COc1ccnc(C(=O)Nc2ccc(Oc3cc(Cl)nc(C(F)(F)F)c3)cc2)c1O [Compound 467] | < 80
COc1ccnc(C(=O)Nc2ccc(Oc3ccc(C(F)(F)F)cn3)cc2)c1O [Compound 462] | < 80

test system: Phytophthora infestans (PHYTIN); assay: microbe, parasite or virus in culture; format: cell-based; conditions: Phytophthora infestans, read-out: PHYTIN in vitro Growth Inhibition

Structure (SMILES) | inhibition at 25 ppm [%]
CC(C)(C)CNC(=O)c1cccnc1O [Compound 514] | < 80
COc1ccnc(C(=O)Nc2ccc(Oc3cc(Cl)nc(C(F)(F)F)c3)cc2)c1O [Compound 467] | < 80
COc1ccnc(C(=O)Nc2ccc(Oc3ccc(C(F)(F)F)cn3)cc2)c1O [Compound 462] | < 80

test system: Phytophthora infestans—PHYTIN; assay: whole plant or invertebrate; format: in vivo; conditions: Phytophthora, in Solanum lycopersicum, 24 h, read-out: PHYTIN in vivo 1 Day Protectant

Structure (SMILES) | pest or weed control at 100 ppm [%]
CC(C)(C)CNC(=O)c1cccnc1O [Compound 514] | < 25
COc1ccnc(C(=O)Nc2ccc(Oc3cc(Cl)nc(C(F)(F)F)c3)cc2)c1O [Compound 467] | < 25
COc1ccnc(C(=O)Nc2ccc(Oc3ccc(C(F)(F)F)cn3)cc2)c1O [Compound 462] | < 25

test system: Puccinia recondita—PUCCRT; assay: Brown Rust of Wheat, in vivo whole plant, 24 Hour Protectant; conditions: Puccinia; wheat plants sprayed at 100 ppm, inoculated after 24 hours; control of fungal infection vs untreated plants; read-out: PUCCRT in vivo 1 Day Protectant

Structure (SMILES) | pest or weed control at 100 ppm [%]
CC(C)(C)CNC(=O)c1cccnc1O [Compound 514] | < 25
COc1ccnc(C(=O)Nc2ccc(Oc3cc(Cl)nc(C(F)(F)F)c3)cc2)c1O [Compound 467] | < 25
COc1ccnc(C(=O)Nc2ccc(Oc3ccc(C(F)(F)F)cn3)cc2)c1O [Compound 462] | 25 to 74

test system: Erysiphe graminis—ERYSGT; assay: Powdery Mildew of Wheat, in vivo whole plant, 24 Hour Protectant; conditions: Erysiphe; wheat plants sprayed at 100 ppm, inoculated after 24 hours; control of fungal infection vs untreated plants; read-out: ERYSGT in vivo 1 Day Protectant

Structure (SMILES) | pest or weed control at 100 ppm [%]
CC(C)(C)CNC(=O)c1cccnc1O [Compound 514] | < 25
COc1ccnc(C(=O)Nc2ccc(Oc3cc(Cl)nc(C(F)(F)F)c3)cc2)c1O [Compound 467] | 25 to 74
COc1ccnc(C(=O)Nc2ccc(Oc3ccc(C(F)(F)F)cn3)cc2)c1O [Compound 462] | < 25

test system: Septoria tritici—SEPTTR; assay: Leaf Blotch of Wheat, in vivo whole plant, 24 Hour Protectant; conditions: Zymoseptoria tritici, 24 h, wheat plants sprayed at 100 ppm, inoculated after 24 hours; control of fungal infection vs untreated plants; read-out: SEPTTR in vivo 1 Day Protectant

Structure (SMILES) | pest or weed control at 100 ppm [%]
CC(C)(C)CNC(=O)c1cccnc1O [Compound 514] | < 25
COc1ccnc(C(=O)Nc2ccc(Oc3cc(Cl)nc(C(F)(F)F)c3)cc2)c1O [Compound 467] | 25 to 74
COc1ccnc(C(=O)Nc2ccc(Oc3ccc(C(F)(F)F)cn3)cc2)c1O [Compound 462] | 25 to 74

test system: Leptosphaeria nodorum—LEPTNO; assay: Glume Blotch of Wheat, in vivo whole plant, 24 Hour Protectant; conditions: Leptosphaeria; wheat plants sprayed at 100 ppm, inoculated after 24 hours; control of fungal infection vs untreated plants; read-out: LEPTNO in vivo 1 Day Protectant

Structure (SMILES) | pest or weed control at 100 ppm [%]
CC(C)(C)CNC(=O)c1cccnc1O [Compound 514] | 25 to 74
COc1ccnc(C(=O)Nc2ccc(Oc3cc(Cl)nc(C(F)(F)F)c3)cc2)c1O [Compound 467] | 25 to 74
COc1ccnc(C(=O)Nc2ccc(Oc3ccc(C(F)(F)F)cn3)cc2)c1O [Compound 462] | 25 to 74

test system: not given; assay: not given; conditions: not given

Structure (SMILES) | melting point [°C]
CC(C)(C)CNC(=O)c1cccnc1O [Compound 514] | 180 to 181
COc1ccnc(C(=O)Nc2ccc(Oc3cc(Cl)nc(C(F)(F)F)c3)cc2)c1O [Compound 467] | 198 to 201
COc1ccnc(C(=O)Nc2ccc(Oc3ccc(C(F)(F)F)cn3)cc2)c1O [Compound 462] | 141 to 143
